According to publication PMC4460250, “Systems Pharmacology Dissecting Holistic Medicine for Treatment of Complex Diseases: An Example Using Cardiocerebrovascular Diseases Treated by TCM” (Evidence-based Complementary and Alternative Medicine : eCAM, 2015):

Assays:
[1] = in vivo
[2] = in vivo; cited from earlier work

Cc1cccc(C)c1OC[C@@H](C)N [Mexiletine(R)]
Class(High: HIA value ≥0.7; Low: HIA value < 0.7) [1]: High (key: High: HIA value ≥0.7; Low: HIA value < 0.7)
HIA(Human Intestinal Absorption) [2]: 0.98

Clc1ccc(CO[C@@H](Cn2ccnc2)c2ccc(Cl)cc2Cl)c(Cl)c1 [Miconazole(R)]
Class(High: HIA value ≥0.7; Low: HIA value < 0.7) [1]: High (key: High: HIA value ≥0.7; Low: HIA value < 0.7)
HIA(Human Intestinal Absorption) [2]: 0.99

Clc1ccc(CO[C@H](Cn2ccnc2)c2ccc(Cl)cc2Cl)c(Cl)c1 [Miconazole(S)]
Class(High: HIA value ≥0.7; Low: HIA value < 0.7) [1]: High (key: High: HIA value ≥0.7; Low: HIA value < 0.7)
HIA(Human Intestinal Absorption) [2]: 0.99

Cc1ncc2n1-c1ccc(Cl)cc1C(c1ccccc1F)=NC2 [Midazolam]
Class(High: HIA value ≥0.7; Low: HIA value < 0.7) [1]: High (key: High: HIA value ≥0.7; Low: HIA value < 0.7)
HIA(Human Intestinal Absorption) [2]: 1

COP(=O)(OC)O[C@@H](c1ccc(Cl)cc1)P(=O)(OC)OC [Mifobate(R)]
Class(High: HIA value ≥0.7; Low: HIA value < 0.7) [1]: High (key: High: HIA value ≥0.7; Low: HIA value < 0.7)
HIA(Human Intestinal Absorption) [2]: 0.82

COP(=O)(OC)O[C@H](c1ccc(Cl)cc1)P(=O)(OC)OC [Mifobate(S)]
Class(High: HIA value ≥0.7; Low: HIA value < 0.7) [1]: High (key: High: HIA value ≥0.7; Low: HIA value < 0.7)
HIA(Human Intestinal Absorption) [2]: 0.82

CCCCC(C)(O)C/C=C/[C@H]1[C@H](O)CC(=O)[C@@H]1CCCCCCC(=O)OC (stereo partly drawn) [Misoprostol(R)]
Class(High: HIA value ≥0.7; Low: HIA value < 0.7) [1]: High (key: High: HIA value ≥0.7; Low: HIA value < 0.7)
HIA(Human Intestinal Absorption) [2]: 0.88

NC(=O)C[S+]([O-])C(c1ccccc1)c1ccccc1 (stereo not drawn) [Modafinil]
Class(High: HIA value ≥0.7; Low: HIA value < 0.7) [1]: High (key: High: HIA value ≥0.7; Low: HIA value < 0.7)
HIA(Human Intestinal Absorption) [2]: 0.8

COc1cc2c(cc1OC)CN(C(=O)[C@H](C)N[C@@H](CCc1ccccc1)C(=O)O)[C@H](C(=O)O)C2 [Moexipril_diacid]
Class(High: HIA value ≥0.7; Low: HIA value < 0.7) [1]: Low (key: High: HIA value ≥0.7; Low: HIA value < 0.7)
HIA(Human Intestinal Absorption) [2]: 0.05

CO[C@@]1(NC(=O)C(C(=O)O)c2ccc(O)cc2)C(=O)N2C(C(=O)O)=C(CSc3nnnn3C)CO[C@@H]21 (stereo partly drawn) [Moxalactam(R)]
Class(High: HIA value ≥0.7; Low: HIA value < 0.7) [1]: Low (key: High: HIA value ≥0.7; Low: HIA value < 0.7)
HIA(Human Intestinal Absorption) [2]: 0.01

CC(C)[C@H]1CC[C@H](C(=O)N[C@H](Cc2ccccc2)C(=O)O)CC1 [Nateglinide(R)]
Class(High: HIA value ≥0.7; Low: HIA value < 0.7) [1]: High (key: High: HIA value ≥0.7; Low: HIA value < 0.7)
HIA(Human Intestinal Absorption) [2]: 0.83

NC[C@@H]1O[C@H](O[C@H]2[C@@H](O)[C@H](O[C@@H]3[C@@H](O)[C@H](N)C[C@H](N)[C@H]3O[C@H]3O[C@H](CN)[C@@H](O)[C@H](O)[C@H]3N)O[C@@H]2CO)[C@H](N)[C@@H](O)[C@@H]1O [Neomycin]
Class(High: HIA value ≥0.7; Low: HIA value < 0.7) [1]: Low (key: High: HIA value ≥0.7; Low: HIA value < 0.7)
HIA(Human Intestinal Absorption) [2]: 0.03

CN(C)C(=O)Oc1cccc([N+](C)(C)C)c1 [Neostigmine]
Class(High: HIA value ≥0.7; Low: HIA value < 0.7) [1]: Low (key: High: HIA value ≥0.7; Low: HIA value < 0.7)
HIA(Human Intestinal Absorption) [2]: 0.02

COC(=O)C1=C(C)NC(C)=C(C(=O)OCCN(C)Cc2ccccc2)[C@@H]1c1cccc([N+](=O)[O-])c1 [Nicardipine(R)]
Class(High: HIA value ≥0.7; Low: HIA value < 0.7) [1]: High (key: High: HIA value ≥0.7; Low: HIA value < 0.7)
HIA(Human Intestinal Absorption) [2]: 0.95

COC(=O)C1=C(C)NC(C)=C(C(=O)OCCN(C)Cc2ccccc2)[C@H]1c1cccc([N+](=O)[O-])c1 [Nicardipine(S)]
Class(High: HIA value ≥0.7; Low: HIA value < 0.7) [1]: High (key: High: HIA value ≥0.7; Low: HIA value < 0.7)
HIA(Human Intestinal Absorption) [2]: 0.95

CN1CCC[C@H]1c1cccnc1 [Nicotine(S)]
Class(High: HIA value ≥0.7; Low: HIA value < 0.7) [1]: High (key: High: HIA value ≥0.7; Low: HIA value < 0.7)
HIA(Human Intestinal Absorption) [2]: 1

COC(=O)C1=C(C#N)NC(C)=C(C(=O)OC(C)C)[C@H]1c1cccc([N+](=O)[O-])c1 [Nilvadipine(R)]
Class(High: HIA value ≥0.7; Low: HIA value < 0.7) [1]: High (key: High: HIA value ≥0.7; Low: HIA value < 0.7)
HIA(Human Intestinal Absorption) [2]: 1

COC(=O)C1=C(C#N)NC(C)=C(C(=O)OC(C)C)[C@@H]1c1cccc([N+](=O)[O-])c1 [Nilvadipine(S)]
Class(High: HIA value ≥0.7; Low: HIA value < 0.7) [1]: High (key: High: HIA value ≥0.7; Low: HIA value < 0.7)
HIA(Human Intestinal Absorption) [2]: 1

COC(=O)C1=C(C)NC(C)=C(C(=O)OCC(C)C)[C@@H]1c1ccccc1[N+](=O)[O-] [Nisoldipine(R)]
Class(High: HIA value ≥0.7; Low: HIA value < 0.7) [1]: High (key: High: HIA value ≥0.7; Low: HIA value < 0.7)
HIA(Human Intestinal Absorption) [2]: 0.9

COC(=O)C1=C(C)NC(C)=C(C(=O)OCC(C)C)[C@H]1c1ccccc1[N+](=O)[O-] [Nisoldipine(S)]
Class(High: HIA value ≥0.7; Low: HIA value < 0.7) [1]: High (key: High: HIA value ≥0.7; Low: HIA value < 0.7)
HIA(Human Intestinal Absorption) [2]: 0.9

O=C1CN=C(c2ccccc2)c2cc([N+](=O)[O-])ccc2N1 [Nitrazepam]
Class(High: HIA value ≥0.7; Low: HIA value < 0.7) [1]: High (key: High: HIA value ≥0.7; Low: HIA value < 0.7)
HIA(Human Intestinal Absorption) [2]: 0.95

CCOC(=O)C1=C(C)NC(C)=C(C(=O)OC)[C@H]1c1cccc([N+](=O)[O-])c1 [Nitrendipine(R)]
Class(High: HIA value ≥0.7; Low: HIA value < 0.7) [1]: High (key: High: HIA value ≥0.7; Low: HIA value < 0.7)
HIA(Human Intestinal Absorption) [2]: 0.88

CCOC(=O)C1=C(C)NC(C)=C(C(=O)OC)[C@@H]1c1cccc([N+](=O)[O-])c1 [Nitrendipine(S)]
Class(High: HIA value ≥0.7; Low: HIA value < 0.7) [1]: High (key: High: HIA value ≥0.7; Low: HIA value < 0.7)
HIA(Human Intestinal Absorption) [2]: 0.88

O/N=C/c1cc[n+](COC[n+]2ccc(/C=N/O)cc2)cc1 [Obidoxime]
Class(High: HIA value ≥0.7; Low: HIA value < 0.7) [1]: Low (key: High: HIA value ≥0.7; Low: HIA value < 0.7)
HIA(Human Intestinal Absorption) [2]: 0.05

C[C@@H]1COc2c(N3CCN(C)CC3)c(F)cc3c(=O)c(C(=O)O)cn1c23 [Ofloxacin(R)]
Class(High: HIA value ≥0.7; Low: HIA value < 0.7) [1]: High (key: High: HIA value ≥0.7; Low: HIA value < 0.7)
HIA(Human Intestinal Absorption) [2]: 1

C[C@H]1COc2c(N3CCN(C)CC3)c(F)cc3c(=O)c(C(=O)O)cn1c23 [Ofloxacin(S)]
Class(High: HIA value ≥0.7; Low: HIA value < 0.7) [1]: High (key: High: HIA value ≥0.7; Low: HIA value < 0.7)
HIA(Human Intestinal Absorption) [2]: 1

Cc1nccn1C[C@H]1CCc2c(c3ccccc3n2C)C1=O [Ondansetron(R)]
Class(High: HIA value ≥0.7; Low: HIA value < 0.7) [1]: High (key: High: HIA value ≥0.7; Low: HIA value < 0.7)
HIA(Human Intestinal Absorption) [2]: 1

Cc1nccn1C[C@@H]1CCc2c(c3ccccc3n2C)C1=O [Ondansetron(S)]
Class(High: HIA value ≥0.7; Low: HIA value < 0.7) [1]: High (key: High: HIA value ≥0.7; Low: HIA value < 0.7)
HIA(Human Intestinal Absorption) [2]: 1

C=CCOc1ccccc1OC[C@H](O)CNC(C)C [Oxprenolol(R)]
Class(High: HIA value ≥0.7; Low: HIA value < 0.7) [1]: High (key: High: HIA value ≥0.7; Low: HIA value < 0.7)
HIA(Human Intestinal Absorption) [2]: 0.95

C=CCOc1ccccc1OC[C@@H](O)CNC(C)C [Oxprenolol(S)]
Class(High: HIA value ≥0.7; Low: HIA value < 0.7) [1]: High (key: High: HIA value ≥0.7; Low: HIA value < 0.7)
HIA(Human Intestinal Absorption) [2]: 0.95

COc1ccc2c3c1O[C@H]1C(=O)CC[C@@]4(O)[C@@H](C2)N(C)CC[C@]314 [Oxycodone]
Class(High: HIA value ≥0.7; Low: HIA value < 0.7) [1]: Low (key: High: HIA value ≥0.7; Low: HIA value < 0.7)
HIA(Human Intestinal Absorption) [2]: 0.6

COc1cccc(C(=O)CCN[C@@H](C)[C@H](O)c2ccccc2)c1 [Oxyfedrine]
Class(High: HIA value ≥0.7; Low: HIA value < 0.7) [1]: High (key: High: HIA value ≥0.7; Low: HIA value < 0.7)
HIA(Human Intestinal Absorption) [2]: 0.84

CCCC[C@@H]1C(=O)N(c2ccccc2)N(c2ccc(O)cc2)C1=O [Oxyphenbutazone(R)]
Class(High: HIA value ≥0.7; Low: HIA value < 0.7) [1]: High (key: High: HIA value ≥0.7; Low: HIA value < 0.7)
HIA(Human Intestinal Absorption) [2]: 1

CCCC[C@H]1C(=O)N(c2ccccc2)N(c2ccc(O)cc2)C1=O [Oxyphenbutazone(S)]
Class(High: HIA value ≥0.7; Low: HIA value < 0.7) [1]: High (key: High: HIA value ≥0.7; Low: HIA value < 0.7)
HIA(Human Intestinal Absorption) [2]: 1

COc1ccc(Cc2nccc3cc(OC)c(OC)cc23)cc1OC [Papaverine]
Class(High: HIA value ≥0.7; Low: HIA value < 0.7) [1]: High (key: High: HIA value ≥0.7; Low: HIA value < 0.7)
HIA(Human Intestinal Absorption) [2]: 0.9

CC(C)(C)NC[C@H](O)COc1ccccc1C1CCCC1 [Penbutolol(S)]
Class(High: HIA value ≥0.7; Low: HIA value < 0.7) [1]: High (key: High: HIA value ≥0.7; Low: HIA value < 0.7)
HIA(Human Intestinal Absorption) [2]: 1

CC(C)=CCN1CCC2(C)c3cc(O)ccc3CC1C2C (stereo not drawn) [Pentazocine]
Class(High: HIA value ≥0.7; Low: HIA value < 0.7) [1]: High (key: High: HIA value ≥0.7; Low: HIA value < 0.7)
HIA(Human Intestinal Absorption) [2]: 0.95

CCC[C@@H](C)C1(CC)C(=O)NC(=O)NC1=O [Pentobarbital(R)]
Class(High: HIA value ≥0.7; Low: HIA value < 0.7) [1]: High (key: High: HIA value ≥0.7; Low: HIA value < 0.7)
HIA(Human Intestinal Absorption) [2]: 1

CCC[C@H](C)C1(CC)C(=O)NC(=O)NC1=O [Pentobarbital(S)]
Class(High: HIA value ≥0.7; Low: HIA value < 0.7) [1]: High (key: High: HIA value ≥0.7; Low: HIA value < 0.7)
HIA(Human Intestinal Absorption) [2]: 1

CCN(CC)CC[C@@]1(c2ccccc2)CCC(=O)NC1=O [Phenglutarimide(R)]
Class(High: HIA value ≥0.7; Low: HIA value < 0.7) [1]: High (key: High: HIA value ≥0.7; Low: HIA value < 0.7)
HIA(Human Intestinal Absorption) [2]: 1

CCN(CC)CC[C@]1(c2ccccc2)CCC(=O)NC1=O [Phenglutarimide(S)]
Class(High: HIA value ≥0.7; Low: HIA value < 0.7) [1]: High (key: High: HIA value ≥0.7; Low: HIA value < 0.7)
HIA(Human Intestinal Absorption) [2]: 1

CN(C)CC[C@H](c1ccccc1)c1ccccn1 [Pheniramine(R)]
Class(High: HIA value ≥0.7; Low: HIA value < 0.7) [1]: High (key: High: HIA value ≥0.7; Low: HIA value < 0.7)
HIA(Human Intestinal Absorption) [2]: 0.99

CC1(C)S[C@@H]2[C@H](NC(=O)COc3ccccc3)C(=O)N2[C@H]1C(=O)O [Phenoxymethyl penicillinic acid]
Class(High: HIA value ≥0.7; Low: HIA value < 0.7) [1]: Low (key: High: HIA value ≥0.7; Low: HIA value < 0.7)
HIA(Human Intestinal Absorption) [2]: 0.45

CC[C@H](c1ccccc1)c1c(O)c2ccccc2oc1=O [Phenprocoumon(R)]
Class(High: HIA value ≥0.7; Low: HIA value < 0.7) [1]: High (key: High: HIA value ≥0.7; Low: HIA value < 0.7)
HIA(Human Intestinal Absorption) [2]: 0.95

CC[C@@H](c1ccccc1)c1c(O)c2ccccc2oc1=O [Phenprocoumon(S)]
Class(High: HIA value ≥0.7; Low: HIA value < 0.7) [1]: High (key: High: HIA value ≥0.7; Low: HIA value < 0.7)
HIA(Human Intestinal Absorption) [2]: 0.95
